“Also recorded” adds a separate entry of the source.
Columns and labels:
[1] = biological target: mannose binding protein (MBP) of Acanthamoeba (Acanthamoeba castellanii, UniProt Q6J288); experiment: Solid-phase assay of 35S-labeled Acanthamoeba binding to Man-BSA coated wells; set-up: species or system Acanthamoeba strain MEEI 0184 (A. castellani); conditions: for Inhibition of Acanthamoeba binding to Man-BSA: at 100 mM; for Inhibition of amoebic binding to Man-BSA / affinity of amoebic lectin: no concentration stated
Description: The Acanthamoeba strain MEEI 0184 (A. castellani based on morphological characteristics) was derived from an infected human cornea and used throughout this study. ATCC strain 30868 should have similar properties. The parasites were axenically cultured in PYG medium. A solid-phase assay characterized the sugar binding properties of the mannose binding protein (MBP) of Acanthamoeba (Z. Yang et al., Infect. Immun. 65:439-445, 1997). Briefly, wells of microtiter plates were coated with bovine serum albumin-α-D-mannopyranosyl phenylisothiocyanate (Man-BSA, 15-25 moles of α-D-mannopyranoside/mole albumin, 0.03 μg/ml, 50μl/well in 0.1 M sodium carbonate buffer, pH 9.6, 4° C. overnight). Nonspecific binding was blocked with 1% BSA in phosphate buffered saline (PBS, 1 hour, room temperature). After adding a 50-μl aliquot of ^35 S-labeled Acanthamoeba (5×10^6 cells/ml in PBS; 1 to 2 cpm/parasite, >95% trophozoites) to each well, the plates were incubated for 2 hours at room temperature. After rinsing the cells with PBS to remove unbound Acanthamoeba, 0.1 ml of 2% sodium dodecyl sulfate (SDS) was added to each well, and the radioactivity in aliquots of solubilized material was determined in a scintillation counter.

Acanthamoeba [2] = experiment: Acanthamoeba-induced cytopathic effect (CPE) assay, immortalized corneal epithelial cultures; type: cell-based; conditions: for Inhibition of amoeba-induced CPE: no concentration stated
Experimental: Corneal epithelial cells with extended life span were also produced.
(§1) To characterize the role of carbohydrate-mediated host-parasite interactions in the Acanthamoeba-induced cytotoxicity of host cells, in vitro cytopathic assays were performed using both primary and immortalized cultures of corneal epithelium as host cells. Immortalized cells were assayed as confluent cultures in 24-well plates, and primary cells were assayed as confluent cells in 35-mm dishes or 6-well plates.
(§2) The plates were incubated at 37° C. in a CO2 incubator and periodically examined under a phase-contrast microscope for the presence of cell-free plaques in the monolayer for up to 28-30 hours. Control wells contained host cells without the parasites. At the end of the incubation period, the cultures were stained with Giemsa (Diff-Quik, Dade Diagnostic Inc., Aguada, PR). Approximate cell density in each well was estimated by scanning the stained plates in a calibrated, computer-assisted Bio-Image Scanner (Millipore, Ann Arbor, Mich.). Cytopathic effect (CPE) was expressed as percentage of the optical density by the following formula: [formula]
The CPE assays were performed in the SFB media containing one or more saccharides to be tested.
After staining with Giemsa, percent cell loss in each well was calculated based on the optical density in each well.

Acanthamoeba [3] = experiment: Acanthamoeba-induced CPE assay, primary cultures of corneal epithelium; type: cell-based; conditions: primary cultures as target cells
Experimental: In vitro cytopathic assays were performed using cell cultures of corneal epithelium as target cells. Primary cell cultures of rabbit corneal epithelium were prepared according to published protocols (M. M. Jumblatt, Invest. Opthalmol. Visual Sci. 24:1139-43, 1983) using rabbit eyes from Pel-Freez Biologicals (N. Panjwani et al., Invest. Opthalmol. Visual Sci. 31:689-695, 1990) (Rogers, AK). Generally, seventy-five eyes were processed at a time. Primary cultures have limited life span and can only be passaged 2 to 3 times without significant alteration in cell morphology.
as §1
as §2, with “The parasites (>95% trophozoites) were rinsed three times in a serum-free Eagle's minimum essential medium supplemented with 0.4% bovine serum albumin (SFB) and aliquots of the parasite suspension (0.2×10^5 to 1×10^6 parasites/ml SFB medium, 300 μl/well for 24-well plates and 500 μl/well for 6-well plates or 35-mm dishes) were added to wells of confluent epithelial cultures which had been rinsed and preincubated in SFB medium for 2 hours. The” for “The”
Primary cultures were less susceptible to amoeba-induced CPE, requiring 1×10^6 parasites/ml to completely destroy the monolayer within 24 hours. This parasite concentration was five times higher than that required to produce the same effect when immortalized cultures were used as target host cells.

Acanthamoeba [4] = experiment: 51Cr release assay of amoeba-induced cytolysis of corneal epithelium; type: cell-based
Experimental: Chromium release experiments were performed to confirm the absence or occurrence of cytolysis. Visually, cell plaques or bare spots in a culture can indicate either cell loss by cytolysis, or separation of the cell from the culture surface, wherein detached cells, although initially viable, subsequently die. Cell lysis was quantified by measuring ^51 Cr release from prelabeled cells. After incubating confluent monolayer cultures of corneal epithelium in 24-well plates in cell culture medium containing Na^51 CrO4 (460 mCi/mg, 12 μCi/ml) for 18-20 hours, the cells were thoroughly rinsed and incubated with Acanthamoeba (1×10^6 parasites/ml SFB media). The four groups were (i) Acanthamoeba in media alone, (ii) Acanthamoeba in media containing α-Man, (iii) Acanthamoeba in media containing GlcNAc, and (iv) Acanthamoeba condition media. When approximately 50-70% cell loss occurred based on phase contrast microscopy, aliquots of cell-free conditioned medium from each well were analyzed. Supernatants from the four wells in each group were pooled before analysis. Percent specific release was calculated using E/T×100, where E is CPM released in test well minus CPM released in control (parasite-free) well and T is the total CPM (CPM cells+CPM supernatant in control wells). "CPM cells" was determined by incubating control wells with 0.5% Triton X-100. Conditioned media from each well was also analyzed for lactate dehydrogenase (LDH) release using an LDH assay kit (Sigma).

Acanthamoeba [5] = experiment: Adhesion of amoebae to corneal epithelial cell monolayer; type: cell-based; conditions: saccharide present in media; listed as GlcNAc
[6] = system: Acanthamoeba-conditioned medium (ACM); experiment: CPE assay with Acanthamoeba-conditioned medium (ACM); type: cell-based
Experimental: To determine whether the mechanism modulating the CPE produced by intact amoeba and amoeba-conditioned medium (ACM) are distinct, CPE and assays were also performed using ACM in the presence and the absence of saccharides. To produce ACM, exponentially growing parasites (>95% trophozoites) in PYG media (Proteose Peptone-yeast extract-glucose , J. T. Bornes et al., J. Parasitol. 56:904-906, 1970) were rinsed twice with SFB medium and incubated in serum-free SFB medium at concentrations between 2×10^5 to 1×10^6 cells/ml in a CO2 incubator for 24 hours. After removing the parasites by centrifugation, each supernatant was analyzed for its ability to induce CPE. Saccharides (α-Man and GIcNAc, 50 mM) were added either to the ACM after it was produced or to serum-free medium used to produce an ACM. The ACM produced in the presence of the saccharides was also analyzed after removal of the saccharides by centrifugation through Centricon 3 microconcentrators (Amicon Inc., Beverly, Mass.).
To determine the role of the parasitic secretory factors in the cytopathogenic mechanism, chromium release and CPE assays were performed using ACM. In this study, parasites were incubated in the SFB media for 24 hours, centrifuged to remove parasites and the conditioned medium was tested for its ability to produce cytolysis and CPE. The ACM produced remarkable CPE. […] Approximately 6 to 8 hours following the incubation of the monolayer with the ACM, the cell sheet at the edges of the monolayer began to lift and roll inwards and eventually the entire monolayer lifted en bloc from the dish. These observations were similar to those seen when the monolayers were incubated with trophozoites in the presence of α-Man. Unlike the CPE induced by intact amoeba, the CPE induced by the ACM was not inhibited by either α-Man or GlcNAc when the sugars were added to the ACM after it was produced. In the next set of experiments, ACM was produced in the presence of α-Man or GIcNAc and was tested for CPE-inducing activity. […] In addition, the filtrate and retentate obtained after filtering the ACM in Centricon 3 microconcentrators were tested for CPE-inducing activity. When the ACM was produced in the absence of either sugar, substantially all of the CPE-inducing activity was found in the retentate obtained after Centricon filtration.

[7] = biological target: proteinases P1, P2, P3, P4; experiment: Zymography with proteinase inhibitors, components P1-P4; type: biochemical, Acanthamoeba; conditions: inhibitor 1 mM
Experimental: (§3) To characterize the mechanism by which the mannose-mediated host-parasite interactions influence the amoeba-induced cytolysis and/or cytopathic effect, conditioned media obtained by incubating amoebae with primary cultures of corneal epithelium in the presence and absence of α-Man for 6 to 8 hours were analyzed by zymography. Media conditioned by only Acanthamoeba or only epithelial cells were also analyzed. Zymography was performed using separating gels containing 10% acrylamide and 2 mg/ml gelatin, essentially as described by D. E. Kleiner et al. (Anal Biochem. 218:325-329, 1994). Samples were diluted in the electrophoresis sample buffer (U. K. Laemmli, Nature 227:680-685, 1970) without mercaptoethanol and were applied to the gels. After electrophoresis, proteinases separated on the gels were renatured by incubating the gels in 2.5% Triton X-100 in 50 mM Tris-HCl, pH 7.5 to remove SDS. After incubating the gels for 18 hours in a developing buffer (50 mM Tris-HCl, pH 7.5 containing 10 mM CaCl2), the gels were stained with Coomassie brilliant blue. Areas of digestion were visualized as non-staining regions. In some experiments, samples were pre-treated with phenylmethylsulfonyl fluoride (PMSF, 1 mM), an inhibitor of […] for one hour prior to electrophoresis, or 1,10-phenanthroline (1 mM), an inhibitor of metalloproteinases, was added to the developing buffer.

proteinases E1, E2 = experiment: Zymography with proteinase inhibitors, media conditioned by epithelial cells alone; type: biochemical, rabbit; conditions: inhibitor 1 mM
Experimental: as §3

Sequence of mannose binding protein (MBP) of Acanthamoeba (Q6J288 entry or part of it): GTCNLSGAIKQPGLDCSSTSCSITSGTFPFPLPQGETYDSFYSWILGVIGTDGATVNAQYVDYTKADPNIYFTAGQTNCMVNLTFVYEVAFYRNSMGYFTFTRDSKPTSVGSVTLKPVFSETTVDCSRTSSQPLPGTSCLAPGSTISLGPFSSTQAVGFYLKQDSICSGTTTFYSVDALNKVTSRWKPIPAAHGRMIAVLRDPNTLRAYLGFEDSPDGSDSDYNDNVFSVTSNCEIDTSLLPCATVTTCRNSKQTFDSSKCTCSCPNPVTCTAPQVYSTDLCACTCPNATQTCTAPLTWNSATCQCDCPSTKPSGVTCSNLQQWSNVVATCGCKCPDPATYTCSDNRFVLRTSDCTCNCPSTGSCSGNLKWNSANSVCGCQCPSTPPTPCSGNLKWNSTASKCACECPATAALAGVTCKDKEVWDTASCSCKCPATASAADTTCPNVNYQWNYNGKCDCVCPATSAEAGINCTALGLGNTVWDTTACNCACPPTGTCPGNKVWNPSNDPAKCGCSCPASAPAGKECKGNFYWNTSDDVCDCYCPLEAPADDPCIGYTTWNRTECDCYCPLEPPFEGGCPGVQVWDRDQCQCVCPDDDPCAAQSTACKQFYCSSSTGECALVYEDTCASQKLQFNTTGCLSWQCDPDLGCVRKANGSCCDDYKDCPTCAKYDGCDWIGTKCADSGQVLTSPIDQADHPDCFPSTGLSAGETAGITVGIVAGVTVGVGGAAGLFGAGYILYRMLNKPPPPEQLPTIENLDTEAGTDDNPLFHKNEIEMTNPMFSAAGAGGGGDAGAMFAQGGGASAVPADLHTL

SMILES: N[C@H]1C(O)O[C@H](CO)[C@@H](O)[C@@H]1O (stereo partly drawn) [D-glucosamine]
- Inhibition of Acanthamoeba binding to Man-BSA [1]: did not inhibit
- Toxicity to the epithelium (corneal epithelium): Toxic

SMILES: N[C@@H]1C(O)O[C@H](CO)[C@@H](O)[C@@H]1O (stereo partly drawn) [D-mannosamine]
- Inhibition of amoeba-induced CPE (Acanthamoeba [2]): did not inhibit
- Inhibition of Acanthamoeba binding to Man-BSA [1]: did not inhibit
- Inhibition of amoebic binding to Man-BSA / affinity of amoebic lectin [1]: did not inhibit
- Toxicity to the epithelium (corneal epithelium): Toxic

SMILES: CC(=O)N[C@H]1C(O)O[C@H](CO)[C@@H](O)[C@@H]1O (stereo partly drawn) [N-acetyl-D-glucosamine]
- Inhibition of amoeba-induced CPE (Acanthamoeba [3]): inhibited
- inhibition at 310 µM (Acanthamoeba [2]; Acanthamoeba, in Oryctolagus cuniculus, at 0.31 mM, read-out: Inhibition of cytopathic effect (% inhib. at indicated conc.)): 60%
- Inhibition of amoeba-induced CPE (Acanthamoeba [2]; listed as GlcNAc): inhibits CPE; also recorded: potent inhibitor; also recorded: nearly identical
- Attachment of cell layer to culture dish (Acanthamoeba [2]; primary and immortalized cultures, entire assay period of 28 hours): remained firmly adhered
- Amoeba-induced cytolysis of corneal epithelial cells (microscopy, words) (Acanthamoeba [2]; saccharide present in media): little evidence of cytolysis
- Inhibition of amoebic binding to Man-BSA / affinity of amoebic lectin ([1]; listed as GlcNAc): weak inhibitor
- inhibition at 50000 µM ([1]; read-out: Inhibition of binding, % at indicated conc.): 50%
- Percentage specific 51Cr release (Acanthamoeba [4]; Acanthamoeba 1×10^6 parasites/ml in media containing the saccharide, media alone about 100): ~80%
- Inhibition of amoeba-induced cytolysis (Acanthamoeba [4]; fifty millimolar, 51Cr release): 10-20%
- Adhesion of amoebae to the cell monolayer in presence of saccharide (Acanthamoeba [5]): poor inhibitor; also recorded: adhered tightly
- CPE-inducing activity of ACM produced with saccharide, after removal of saccharide by Centricon filtration ([6]; saccharide 50 mM): did not have CPE-inducing activity
- CPE-inducing activity of ACM produced in SFB containing the saccharide ([6]; saccharide 50 mM in medium used to produce ACM): did not induce CPE
- Inhibition of ACM-induced CPE ([6]; sugar (50 mM) added to the ACM after it was produced): not inhibited

SMILES: c1cnc2c(c1)ccc1cccnc12 [1,10-phenanthroline]
- Susceptibility of component P1 (230 kD) to inhibitor [7]: resistant
- Susceptibility of component P2 (97 kD) to inhibitor [7]: resistant
- Susceptibility of component P3 (80 kD) to inhibitor [7]: susceptible
- Susceptibility of component P4 (55 kD) to inhibitor [7]: resistant
- Susceptibility of component E1 (93 kD) to inhibitor (proteinases E1, E2): susceptible
- Susceptibility of component E2 (63 kD) to inhibitor (proteinases E1, E2): susceptible

From patent US6037333A, “Microbe-inhibiting compositions” (Trustees of Tufts College, priority 1998, dated 2000)
